US20250170212A1, “COMPOSITIONS AND METHODS OF TREATING AMYOTROPHIC LATERAL SCLEROSIS (ALS) AND RELATED DISORDERS” (BIOINCEPT, LLC, priority 2022, published 2025)

Key:
IL-12 = test: Serum cytokine analysis, multiplex ELISA; format: in vivo, mouse; details: serum collected weekly; compared to other groups
Description: (§1) Samples were collected every week, starting from day of graft transplantation (day 0), 100 μl of blood from mouse tail. Blood was stored 1 h in room temperature, and overnight in +4° C. Serum was gently aspirated, and centrifuged 10 min with 2000 RPM to separate blood morphotic bodies. Purified serum was stored in −80° C. until further analysis. Multiplex ELISA 23-cytokine kit (M60009RDPD) was obtained from Bio-Rad (Bio-Plex Pro Mouse Cytokine 23-plex Assay #M60009RDPD, Hercules, Bio-Rad, CA, USA, RRID: AB_2857368) and performed according to instructions. 50 μl of diluted in sample diluent, 1:4 serum samples and diluted at range 1:10-1:20. Measurement standards were used, diluted 9 times according to the protocol and added at template plate. Vortexed beads were added to the assay 96-well plate. Plate was again washed 3 times with wash buffer, then from template plate, 50 μl of samples, standards and blank were transferred to measurement plate with multichannel pipette. Plate was sealed with tape and incubated 30 min. After this time, plate was washed 3 times. 25 μl of detection antibody was added to the wells with multichannel pipette. Plate was sealed and incubated for 30 min. and next washed 3 times using wash buffer. […] Beads were resuspended with 125 μl of assay buffer and analysis was performed with Bio Plex 200 reader.
(§2) All quantifications were performed including the manual cell counts in a blinded manner. The NeuN and Ibal were counted as positive cells in the ROI (see above) as previously reported. The number of cells was determined by unbiased counting of positive cells. […] Differences between groups were analyzed using a repeated measure ANOVA model with a fixed effect for the group, of the time and a random intercept for the mouse. In a second, more explorative, approach for each group the time when the physical activity was first measured below a certain threshold was determined. […] The clinically relevant threshold was determined according to previous observations and defined as value 0.9 for the Wire Test. […] The statistical significance at p<0.05 was then determined.

IL-1α = test: Serum cytokine analysis, multiplex ELISA; format: in vivo, mouse; details: serum collected weekly; compared to Injury and mGRPs groups
Description: as §1, §2

[1] = test system: GFP+ mGRPs, GFAP+ astrocytes, OLIG2+ oligodendrocytes
Description: Paraffin slides of the brain tissue after heated in 1 h in 60° C. were deparaffinized in: 1×10 min. Xylen I, 1×10 min Xylen II, 1×10 min EtOH 100%, 1×10 min EtOH 70%, 1×10 min EtOH 40%, 1×10 min dest. H2O. The target was retrieved in Citrate Buffer+Tween 20 (10 mM, pH=6.0) in a water bath for 20 minutes in 97° C. and then they were let cool down for another 20 minutes. Slides were washed in PBS three times and blocked 1 hour in 10% Goat serum+1% bovine albumin serum. All slides was incubated overnight at 4° C. with a first primary mouse Anti-GFP antibody 1:500 (Abcam Cat #ab1218, RRID: AB_298911). Washed three times with PBS, then secondary antibody Goat Anti-Mouse IgG H&L (Alexa Fluor® 488) in concentration 1:700 (Abcam Cat #ab 150117, RRID: AB_2688012) was applied for 40 min in RT. Then one part of the slides was washed three times in PBS and the second primary Rabbit Anti-GFAP antibody (Abcam Cat #ab7260, RRID: AB_305808) was applied 1:1000, incubated overnight at 4° C. After that the secondary antibody Goat Anti-Rabbit IgG H&L (Alexa Fluor® 594) (Abcam Cat #ab 150080, RRID: AB_2650602) was applied for 40 min RT in concentration 1:700. The second part of the slides was incubated with Rabbit Recombinant Anti-Olig2 antibody (Abcam Cat #ab109186, RRID: AB_10861310) 1:100 incubated overnight in 4° C. Next day the secondary antibody Goat Anti-Rabbit IgG H&L (Alexa Fluor® 594) (Abcam Cat #ab150080, RRID: AB_2650602) was applied for 40 min RT in 1:700 concentration. […] The slides were washed in PBS, mounted with DAKO mounting medium (Agilent Technologies, Santa Clara, CA, United States) and analyzed under Leica DM5500 fluorescent microscopy with LAS X software.

immature brain injury = details: murine model of immature brain injury; cited from earlier work
[2] = whole cross section of the mouse diencephalon

In the case of MVRIKPGSANKPSDD [sPIF], the “peripheral IL-12 cytokine level” value (IL-12) is reported as “plateaued at day 28”, the “peripheral IL-1α cytokine peak” value (IL-1α) is reported as “decreased IL-1α peak significantly” and the “mGRPs progeny: GFP+ astrocytes and oligodendrocytes in brain parenchyma” value ([1]; diencephalon, day 56) is reported as “few GFP+ astrocytes and oligodendrocytes in the brain parenchyma”. The “area of astrocytes (GFAP+)” value [1, 2] was “significantly larger area of astrocytes”, the “area of oligodendrocytes (OLIG2+)” value [1, 2] was “larger area of oligodendrocytes” and the “neuronal loss and microglial activation” value (immature brain injury) was “mitigate neuronal loss and microglial activation”.
